Source: paper PMC3493683 (Journal of medicinal chemistry, 2012)

Molecular target: recombinant β-secretase (memapsin 2, BACE 1) (Homo sapiens, UniProt P56817)
Test: BACE 1 inhibitory activity against recombinant β-secretase
Type: biochemical
Conditions: for BACE 1 inhibitory activity (in words): recombinant β-secretase

Chain of recombinant β-secretase (memapsin 2, BACE 1) (P56817 46-501): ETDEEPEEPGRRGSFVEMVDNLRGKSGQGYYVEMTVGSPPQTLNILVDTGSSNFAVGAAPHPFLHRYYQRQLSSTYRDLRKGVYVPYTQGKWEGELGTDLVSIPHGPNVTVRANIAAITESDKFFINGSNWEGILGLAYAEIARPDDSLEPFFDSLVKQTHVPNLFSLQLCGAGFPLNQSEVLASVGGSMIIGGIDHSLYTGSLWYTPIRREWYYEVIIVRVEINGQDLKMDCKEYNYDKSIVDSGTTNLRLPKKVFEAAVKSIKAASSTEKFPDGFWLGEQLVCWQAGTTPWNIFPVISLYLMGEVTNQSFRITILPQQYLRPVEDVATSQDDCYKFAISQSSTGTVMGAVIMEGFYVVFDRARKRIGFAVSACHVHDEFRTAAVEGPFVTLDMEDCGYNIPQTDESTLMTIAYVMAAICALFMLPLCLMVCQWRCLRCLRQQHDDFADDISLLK

SMILES	BACE 1 inhibitory activity (in words)	further results
CC(C)CNC[C@@H](NC[C@H](Cc1ccccc1)NC(=O)c1cc(C(=O)N[C@H](C)c2ccccc2)cc(N(C)S(C)(=O)=O)c1)[C@H](C)O [Inhibitor 9]	total loss in potency	–
CCC[C@H](O)[C@H](NC[C@H](Cc1ccccc1)NC(=O)c1cc2c3c(c1)c(CC)cn3CC(C)(C)S(=O)(=O)N2C)C(=O)NCC(C)C [Inhibitor 20]	–	potency enhancement (BACE 1) (over unsubstituted inhibitor 19): > 10 fold
CCC[C@H](O)[C@H](NC[C@H](Cc1ccccc1)NC(=O)c1cc2c3c(c1)c(CC)cn3CCS(=O)(=O)N2C)C(=O)NCC(C)C [Inhibitor 19]	–	improvement in the potency (BACE 1) (compared with inhibitor 18): around 18 fold
CC(C)CN(C)C(=O)[C@@H](NC[C@H](Cc1ccccc1)NC(=O)c1cc(C(=O)N[C@H](C)c2ccccc2)cc(N(C)S(C)(=O)=O)c1)[C@H](C)O [Inhibitor 7]	abolished all BACE 1 inhibitory activity	–
